Test [1] deals with T1, 6His-Tev-LRRK2 (1326-2527) (Homo sapiens, UniProt Q5S007).
T1 construct: A LRRK2 cDNA encoding residues 1326-2527 was received from Dundee University; made in house; host or cells: Spodoptera frugiperda (Sf9) insect cells, baculovirus
T1 sequence (Q5S007 1326-2527): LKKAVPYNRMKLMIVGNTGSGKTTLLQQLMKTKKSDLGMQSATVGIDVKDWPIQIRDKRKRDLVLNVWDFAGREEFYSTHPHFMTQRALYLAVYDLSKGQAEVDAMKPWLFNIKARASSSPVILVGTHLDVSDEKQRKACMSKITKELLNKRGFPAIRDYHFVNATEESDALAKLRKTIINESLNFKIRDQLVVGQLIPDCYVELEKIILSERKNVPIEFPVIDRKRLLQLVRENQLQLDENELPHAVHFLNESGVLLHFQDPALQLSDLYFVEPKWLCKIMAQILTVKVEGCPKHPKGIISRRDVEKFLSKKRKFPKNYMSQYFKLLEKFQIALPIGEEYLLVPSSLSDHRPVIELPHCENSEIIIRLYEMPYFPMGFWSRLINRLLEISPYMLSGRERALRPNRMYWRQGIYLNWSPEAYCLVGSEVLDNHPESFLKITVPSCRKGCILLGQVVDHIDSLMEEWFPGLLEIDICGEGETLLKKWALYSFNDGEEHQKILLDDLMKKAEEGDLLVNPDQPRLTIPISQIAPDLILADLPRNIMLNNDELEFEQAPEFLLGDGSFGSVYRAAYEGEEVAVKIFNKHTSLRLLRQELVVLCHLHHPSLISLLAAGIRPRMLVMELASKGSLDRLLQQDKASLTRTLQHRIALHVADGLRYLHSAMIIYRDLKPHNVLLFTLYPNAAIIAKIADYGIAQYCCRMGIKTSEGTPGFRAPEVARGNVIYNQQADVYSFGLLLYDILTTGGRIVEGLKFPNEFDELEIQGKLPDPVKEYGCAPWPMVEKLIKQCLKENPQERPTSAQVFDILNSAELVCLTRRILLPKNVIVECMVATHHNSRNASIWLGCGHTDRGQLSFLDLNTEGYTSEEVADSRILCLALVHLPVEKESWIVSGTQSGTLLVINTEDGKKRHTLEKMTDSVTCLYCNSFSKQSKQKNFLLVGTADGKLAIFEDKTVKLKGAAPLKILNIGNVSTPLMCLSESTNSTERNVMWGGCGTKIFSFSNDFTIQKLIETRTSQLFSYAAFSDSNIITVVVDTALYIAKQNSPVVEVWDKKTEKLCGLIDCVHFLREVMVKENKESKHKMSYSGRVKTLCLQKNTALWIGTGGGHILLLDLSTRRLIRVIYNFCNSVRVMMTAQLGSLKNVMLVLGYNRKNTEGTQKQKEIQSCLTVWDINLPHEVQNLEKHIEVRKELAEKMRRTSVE
As to the kind of experiment: LRRK2 peptide substrate assay. It counts as biochemical. To be noted: Biotin-LRRKtide peptide substrate, ATP at Km. The procedure: Compounds of formula (I) may be tested for in vitro kinase activity in accordance with the following assays, using the non natural, in vitro, substrates moesin and the Longer Biotin-LRRKtide. Moesin and a shorter version of the peptide were identified as substrates in Jaleel et al, (2007, Biochem J, 405: 307-317).
LRRK2 Peptide Substrate Assay
(§1) a) 100 nl of a 1:4 serial dilution of test compound with a top final assay concentration of 30 μM is added to certain wells in a low volume 384 well black plate. 100 nl of DMSO is used in certain wells as controls.
b) 3 μl enzyme solution (80 nM purified recombinant 6His-Tev-LRRK2 (1326-2527) in assay buffer: 50 mM Hepes (pH 7.2), 10 mM MgCl2, 150 mM NaCl, 5% glycerol, 0.0025% triton X-100 and 1 mM DTT) is added to certain wells. […] Plates are then incubated for a further 1-2 hours at room temperature (incubation time varies depending upon rate and linearity of reaction with differing enzyme batches). d) 6 μl detection solution (50 nM Streptavidin SureLight® APC (PerkinElmer), 4 nM Eu-W1024 labelled anti-rabbit IgG antibody (PerkinElmer), 1:500 dilution (dilution determined on a batch to batch basis) of Phospho-Ezrin (Thr567)/Radixin (Thr564)/Moesin (Thr558) Polyclonal Antibody (New England Biolabs) and 60 mM EDTA in buffer: 40 mM Hepes (pH 7.2), 150 mM NaCl, 0.03% BSA) is added to each well. Plates are then incubated for a further 2 hours at room temperature before reading on a suitable plate reader (Excitation 330 nm, emission 620 nm (Eu) and 665 nm (APC)). Data is analysed using ActivityBase software (IDBS). LRRK2 AlphaScreen Protein Substrate Assay

The target in test [2] is T1, 6His-Tev-LRRK2 (1326-2527). As to the kind of experiment: LRRK2 AlphaScreen desensitised protein substrate assay. Type of test: biochemical. The procedure: as §1
b) 3 μl enzyme solution (80 nM purified recombinant 6His-Tev-LRRK2 (1326-2527) in assay buffer: 50 mM Hepes (pH 7.2), 10 mM MgCl2, 150 mM NaCl, 5% glycerol, 0.0025% triton X-100 and 1 mM DTT) is added to certain wells.
Plates are then incubated for a further 1-2 hours at room temperature (incubation time varies depending upon rate and linearity of reaction with differing enzyme batches).
d) 6 μl detection solution (1:250 dilution of AlphaLisa Protein A Acceptor beads (PerkinElmer), 1:64 dilution of AlphaLisa Gluthathione Donor beads (PerkinElmer) and 1:600 dilution (dilution determined on a batch to batch basis) of Phospho-Ezrin (Thr567)/Radixin (Thr564)/Moesin (Thr558) Polyclonal Antibody (New England Biolabs) in a buffer: 50 mM Hepes (pH 7.5), 250 mM NaCl, 60 mM EDTA, 1% PEG and 0.01% Brij 35) is added to each well. Plates are then incubated for a further 2 hours at room temperature in the dark before reading on an EnVision™ plate reader with AlphaScreen HTS turbo option module and AlphaScreen settings. Data is analysed using ActivityBase software (IDBS).
LRRK2 AlphaScreen Desensitised Protein Substrate Assay
This is conducted as described for the LRRK2 alphascreen protein substrate assay, with the following differences: • 1. The concentration of ATP in the substrate solution was 2 mM. • 2. The plates were incubated for 20 minutes at room temperature following addition of the substrate solution. Pharmacological Data
(Alpha assays give light when donor and acceptor beads are brought close together.)

Where [3] appears, read: read-out: pIC50 in the LRRK2 peptide substrate assay (converted).
The mark [4] stands for this setting: excess of ATP present (2 mM ATP), read-out: pIC50 in the LRRK2 alphascreen desensitised protein substrate assay (converted).
Where [5] appears, read: mean pIC50, read-out: LRRK2 peptide substrate assay (pIC50) (converted).
Where [6] appears, read: mean pIC50, GST-PS-Moesin (400-577) substrate, 2 mM ATP (excess of ATP present), read-out: LRRK2 alphascreen desensitised protein substrate assay (pIC50) (converted).

Some results are limits rather than exact numbers.

Regarding `O=C(Nc1cccnc1)c1cc(C(=O)N2CCCC2)ccc1OCc1ccccc1` [Example 37, 2-[(Phenylmethyl)oxy]-N-3-pyridinyl-5-(1-pyrrolidinylcarbonyl)benzamide], the IC50 in test [1] (setting [3]) was no more than 100 nM; in test [2] (setting [4]), no more than 20 µM.

Regarding `O=C(Nc1cccnc1)c1cc(C(=O)N2CCOCC2)ccc1OCc1ccccc1` [Example 38, 5-(4-Morpholinylcarbonyl)-2-[(phenylmethyl)oxy]-N-3-pyridinylbenzamide], the IC50 in test [1] (setting [3]) was no more than 100 nM; in test [1] (setting [5]), 79.4 nM; in test [2] (setting [4]), no more than 20 µM; in test [2] (setting [6]), 7.94 µM.

In the case of `O=C(Nc1cccnc1)c1cc(OC[C@H]2CCCN2)ccc1OCc1ccccc1` [Example 44, 2-[(Phenylmethyl)oxy]-N-3-pyridinyl-5-{[(2R)-2-pyrrolidinylmethyl]oxy}benzamide], the figures for the IC50 in test [1] (setting [3]) and in test [2] (setting [4]) were no more than 10 nM and no more than 20 µM, respectively.

On to `CN1CCC[C@@H]1COc1ccc(OCc2ccccc2)c(C(=O)Nc2cccnc2)c1` [Example 45, 5-({[(2R)-1-Methyl-2-pyrrolidinyl]methyl}oxy)-2-[(phenylmethyl)oxy]-N-3-pyridinylbenzamide], for which the IC50 is no more than 10 nM in test [1] (setting [3]) and no more than 20 µM in test [2] (setting [4]).

In the case of `O=C(Nc1cccnc1)c1cc(OC[C@@H]2CCCN2)ccc1OCc1ccccc1` [Example 46, 2-[(Phenylmethyl)oxy]-N-3-pyridinyl-5-{[(2S)-2-pyrrolidinylmethyl]oxy}benzamide], the IC50 is no more than 100 nM in test [1] (setting [3]) and no more than 20 µM in test [2] (setting [4]).

For the compound `CN1CCC[C@H]1COc1ccc(OCc2ccccc2)c(C(=O)Nc2cccnc2)c1` [Example 47, 5-({[(2S)-1-Methyl-2-pyrrolidinyl]methyl}oxy)-2-[(phenylmethyl)oxy]-N-3-pyridinylbenzamide], the IC50 in test [1] (setting [3]) is no more than 10 nM; in test [2] (setting [4]) it was no more than 20 µM.

On to `CNCCOc1ccc(OCc2ccccc2)c(C(=O)Nc2cccnc2)c1` [Example 48, 5-{[2-(Methylamino)ethyl]oxy}-2-[(phenylmethyl)oxy]-N-3-pyridinylbenzamide], for which the IC50 was no more than 100 nM in test [1] (setting [3]) and no more than 20 µM in test [2] (setting [4]).

As for `NCCOCCOc1ccc(OCc2ccccc2)c(C(=O)Nc2cccnc2)c1` [Example 49, 5-({2-[(2-Aminoethyl)oxy]ethyl}oxy)-2-[(phenylmethyl)oxy]-N-3-pyridinylbenzamide], the IC50 was no more than 10 nM in test [1] (setting [3]) and no more than 20 µM in test [2] (setting [4]).

On to `O=C(Nc1cn[nH]c1)c1cc(Br)ccc1OCc1ccccc1` [Example 51, 5-Bromo-2-[(phenylmethyl)oxy]-N-1H-pyrazol-4-ylbenzamide], for which the values for the IC50 in test [1] (setting [3]) and in test [2] (setting [4]) were no more than 100 nM and no more than 20 µM, respectively.

For the compound `O=C(Nc1cccnc1)c1cc(Br)ccc1OCc1cccc(F)c1` [Example 57, 5-Bromo-2-{[(3-fluorophenyl)methyl]oxy}-N-3-pyridinyl benzamide], the IC50 in test [1] (setting [3]) is no more than 100 nM; in test [2] (setting [4]) it was greater than 25.1 µM.

As for `O=C(Nc1cccnc1)c1cc(Br)ccc1OCc1ccccc1F` [Example 58, 5-Bromo-2-{[(2-fluorophenyl)methyl]oxy}-N-3-pyridinylbenzamide], the IC50 was no more than 10 nM in test [1] (setting [3]) and no more than 20 µM in test [2] (setting [4]).

Turning to `Cc1nocc1NC(=O)c1cc(-c2ccncc2)ccc1OCc1ccccc1` [Example 61, N-(3-Methyl-4-isoxazolyl)-2-[(phenylmethyl)oxy]-5-(4-pyridinyl)benzamide], the IC50 in test [1] (setting [3]) is no more than 10 nM; in test [2] (setting [4]), no more than 20 µM.

For the compound `O=C(Nc1cnoc1)c1cc(-c2ccncc2)ccc1OCc1ccccc1` [Example 63, N-4-Isoxazolyl-2-[(phenylmethyl)oxy]-5-(4-pyridinyl)benzamide], the results for the IC50 in test [1] (setting [3]) and in test [2] (setting [4]) were no more than 100 nM and no more than 20 µM, respectively.

Turning to `O=C(Nc1cccnc1)c1cc(CN2CCOCC2)ccc1OCc1ccccc1` [Example 69, 5-(4-Morpholinylmethyl)-2-[(phenylmethyl)oxy]-N-3-pyridinylbenzamide], the IC50 in test [1] (setting [3]) was no more than 100 nM; in test [1] (setting [5]) it was 15.8 nM; in test [2] (setting [4]), no more than 20 µM; in test [2] (setting [6]) it was 0.501 µM.

In the case of `O=C(Nc1cccnc1)c1cc(CN2CCCC2)ccc1OCc1ccccc1` [Example 70, 2-[(Phenylmethyl)oxy]-N-3-pyridinyl-5-(1-pyrrolidinylmethyl)benzamide], the IC50 was no more than 100 nM in test [1] (setting [3]) and no more than 20 µM in test [2] (setting [4]).

For `CN(C)Cc1ccc(OCc2ccccc2)c(C(=O)Nc2cccnc2)c1` [Example 71, 5-[(Dimethylamino)methyl]-2-[(phenylmethyl)oxy]-N-3-pyridinylbenzamide], the IC50 in test [1] (setting [3]) is no more than 100 nM; in test [2] (setting [4]), no more than 20 µM.

With `Cn1cc(-c2ccc(OCc3ccccc3)c(C(=O)Nc3ccnnc3)c2)cn1` [Example 73, 5-(1-Methyl-1H-pyrazol-4-yl)-2-[(phenylmethyl)oxy]-N-4-pyridazinylbenzamide], the IC50 in test [1] (setting [3]) is no more than 10 nM; in test [2] (setting [4]) it was no more than 20 µM.

In the case of `O=C(Nc1ccnnc1)c1cc(-c2ccncc2)ccc1OCc1ccccc1` [Example 74, 2-[(Phenylmethyl)oxy]-N-4-pyridazinyl-5-(4-pyridinyl)benzamide], the IC50 is no more than 10 nM in test [1] (setting [3]) and no more than 20 µM in test [2] (setting [4]).

As to `CC(O)c1ccc(OCc2ccccc2)c(C(=O)Nc2cccnc2)c1` (centres unmarked) [Example 75, 5-(1-Hydroxyethyl)-2-[(phenylmethyl)oxy]-N-3-pyridinylbenzamide], the IC50 in test [1] (setting [3]) is no more than 10 nM; in test [2] (setting [4]), no more than 20 µM.

For `CC(C)(O)c1ccc(OCc2ccccc2)c(C(=O)Nc2cccnc2)c1` [Example 76, 5-(1-Hydroxy-1-methylethyl)-2-[(phenylmethyl)oxy]-N-3-pyridinylbenzamide], the IC50 in test [1] (setting [3]) is no more than 10 nM; in test [2] (setting [4]) it was no more than 20 µM.

The values above are taken from patent US8778939B2, “Compounds” (Glaxo Group Limited, priority 2009, dated 2014).
